# Entries after “also recorded” stand apart in the source; their conditions may differ.
# Experiments:
# Format in all cases: cell-based
# [1] = test system: 3D InSight Human Liver Microtissues; experiment: 3D InSight Human Liver Microtissues, DNL condition, intratissue triglyceride content (7 days)
# Description: After a 7 day treatment with dosings at days 0, 2 and 5, intratissue lipid accumulation was measured using Triglyceride-Glo™ Assay (Promega). In addition, metabolic activity of the treated Liver Microtissues (MTs) and cytotoxicity were assessed by measurement of ATP content at day 7 of treatment (CellTiter-Glo® 2.0 Cell Viability Assay, Promega) and LDH release between days 0-2, days 2-5 and days 5-7 (LDH-Glo™ Cytotoxicity Assay, Promega), respectively. Leftover supernatant collected on treatment days 2, 5 and 7 were stored frozen for further analysis. […] Experimental readout measurements comprised collection and freezing of supernatants for LDH measurement on days 2, 5 and 7. Measurement of LDH released into supernatant was analyzed using an LDH-Glo™ Cytotoxicity Assay (Promega). Measurement of ATP content in single MTs after 7 days of treatment with was analyzed using a Cell Titer Glo™ 2.0 Cell Viability Assay (Promega). Measurement of intratissue triglyceride (TG) content after 7 days of treatment was analyzed using a Triglyceride-Glo™ Assay (Promega). […] Total TG content in MTs at day 7 of treatment was measured with Triglyceride-Glo™ Assay (Promega), according to InSphero AG protocol. The amount of glycerol/MT [pmol/MT] was calculated using linear regression to a standard curve. […]
# [2] = test system: 3D InSight Human Liver Microtissues (NASH condition); experiment: 3D InSight Liver NASH model, intratissue triglyceride content (10 days)
# Description: […]. InSphero's 10-day NASH treatment scheme was applied with compound dosing at days 0, 3, 5 and 7 of treatment. […]. At day 5 of treatment, secreted cytokine levels were measured (LUMINEX™), at days 7 and 10 released procollagen 1 was quantified and at day 10 of treatment intratissue triglyceride content was determined. The release of lactate dehydrogenase (LDH) into culture supernatant was measured at days 3, 5, 7 and 10, in order to detect possible cytotoxicity caused by the treatments. After first data evaluation, released procollagen 3 was measured in supernatants of selected day 10 samples. […]
# Cells were dosed on days 0, 3, 5 and […]. Experimental readout measurements comprised collection and freezing of supernatants for LDH measurement on days 3, 5, 7 and 10. Measurement of LDH released into supernatant was analyzed using an LDH-Glo™ Cytotoxicity
# Assay (Promega). Measurement of intratissue triglyceride (TG) content after 10 days of treatment was analyzed using a Triglyceride-Glo™ Assay (Promega). […] Measurement of IL-6, IL-8, IP-10, MCP-1, MIP-1α and TNF-α content was analyzed using Magnetic Luminex® Performance Assay, Human XL Cytokine Discovery Base Kit (R&D systems).
# . Total TG content in MTs at day 10 of treatment was measured with Triglyceride-Glo™ Assay (Promega), according to InSphero AG protocol. […]
# [3] = test system: human precision cut liver slices; experiment: Precision cut liver slice (PCLS) in vitro human NASH model, soluble outputs (collagen 1α1, IL-6, TIMP-1 ELISA)
# Description: PCLSs were prepared from resected liver tissue and rested for 24 hours to allow the post-slicing stress period to elapse before experiments began. […] PCLS culture media, including lipids and compounds, was refreshed at 24 hrs intervals. […] PCLSs were prepared from an n=1 individual human liver. The human livers are normal margins of near-to-normal human liver obtained during a surgical resection. Tissue culture supernatant (n=3 or n=4 per group) were collected every 24 hrs and snap frozen for quantification of the soluble outputs described below. At harvest, n=2 PCLSs were harvested for a triglyceride assay, n=2 PCLSs were harvested for frozen sections (Oil Red O staining), n=2 PCLSs were formalin-fixed, paraffin embedded (FFPE) for immunohistochemistry, and n=2 PCLSs were snap frozen for RNA isolation (Table 4, Groups 1˜4 only).
# [4] = test system: primary isolated human stellate cells (HSC); experiment: Primary human hepatic stellate cells stimulated with TGF-β1, total collagen (in vitro fibrosis study)
# Description: Primary isolated human stellate cells (HSC) were investigated in the study. The cells were maintained under standard culture conditions and in established culture medium.
# Study Model: Viability screening and in vitro fibrosis study, 24 well plate format, 4 day stimulation with recombinant human TGF-β1. In this study, 2.5 and 10 ng/ml TGF-β1 were used.
# Primary HSCs were seeded on t=day-1 and cultured in 24 well plates for 24 hours. […] Cells were incubated for an additional 96 hours (t=day 4). Conditioned medium samples were collected for expression analysis of secreted proteins. All wells were used for an alamarBlue assay to assess cell viability/metabolic activity. A separate plate was used at t=day 0 as reference for the alamarBlue assay. Next, the cell-matrix fraction was collected for measurement of total collagen and cell protein levels.
# Both test compounds were dissolved in DMSO. Working concentrations were prepared from a stock concentration that is 1000-fold that of the highest working concentration. All controls were incubated with the same DMSO concentration as that present in the highest working concentration.
# Total Collagen assay was performed according to the manufacturer's protocol.
# Total Protein assay, for use with the Total Collagen assay, was performed according to the manufacturer's protocol. Protein levels were used to correct for differences in cell contents between samples.
# Significance of differences between the groups was calculated either parametrically or non-parametrically, using the computer program SPSS. For nonparametric calculations, a Kruskal-Wallis test for several independent samples was used, followed by a Mann-Whitney U-test for independent samples. For parametric calculations, a One-way ANOVA for multiple comparisons was used, followed by Dunnett or Bonferroni's correction.
structure (smiles),measurement,setting,value
"Cc1nc(-c2cc(C(=O)N3CCC(c4ccc(C#N)cc4)CC3)c(C)cc2C2CCC2)n[nH]1 [Compound 001-152, 4-(1-(4-Cyclobutyl-2-methyl-5-(5-methyl-4H-1,2,4-triazol-3-yl)benzoyl)piperidin-4-yl)benzonitrile]",intratissue Triglyceride content,[1],reduces cellular triglycerides
same,intratissue Triglyceride content (NASH-induced),[2],reduced cellular triglycerides
same,fibrosis marker collagen 1α1 in culture supernatant,[3],dose and time-dependent decrease
same,collagen production,[4],inhibits collagen production directly; also recorded: inhibits as effectively as positive control Alk5 inhibitor

# Reference: US20250017938A1, “COMBINATION THERAPIES OF FASN INHIBITORS WITH THYROID HORMONE RECEPTOR AGONISTS” (Sagimet Biosciences Inc., priority 2023, published 2025)
